Values quoted from earlier work in patent US7605180B2, “Nateglinide-containing preparation” (Ajinomoto Co., Inc., priority 2000, dated 2009).

How the values were obtained:
blood glucose = details: oral administration

In the case of `CC(C)[C@H]1CC[C@H](C(=O)N[C@H](Cc2ccccc2)C(=O)O)CC1` [nateglinide, N-(trans-4-isopropylcyclohexylcarbonyl)-D-phenylalanine], the Blood glucose-lowering effect (blood glucose) is listed as “excellent blood glucose-lowering effect” and the Water solubility is listed as “poorly water soluble”.
